Measurements reported in article PMC5845353, “The selective cathepsin K inhibitor MIV-711 attenuates joint pathology in experimental animal models of osteoarthritis” (Journal of Translational Medicine, 2018).

Test system: rabbits subjected to anterior cruciate ligament transection (ACLT)
Experiment: Rabbit ACLT study, histomorphometry of bone, cartilage and osteophytes
Format: in vivo
Procedure: The femora and tibias were decalcified, embedded in paraffin, sectioned at 5-7 µm at two different levels separated by approximately 2 mm, and stained with safranin O and toluidine blue.
Both tibial plateaus and femoral condyles (i.e. four joint compartments) were also subjected to histomorphometric analysis of cartilage, subchondral bone, cancellous bone, and osteophytes. The measurements were made using OsteoMeasureXP version 3.3.0.2 as follows:
Uncalcified cartilage area was measured by tracing the articular surface (cartilage perimeter) and bone or calcified cartilage/uncalcified cartilage interface (cartilage boundary).
Cartilage width was measured by point to point measurement at intersections between a sampling grid with approximately 0.5 mm spacing and the cartilage boundary. The intercepts measured were orthogonal to the cartilage boundary and ended at the cartilage perimeter. At intersections where the cartilage width was zero due to erosion, a value of zero was recorded.
Subchondral bone width was measured by point to point measurement at intersections between a sampling grid with approximately 0.5 mm spacing and the cartilage boundary. The intercepts measured were orthogonal to the cartilage boundary and ended at the first marrow cavity encountered that had at least one dimension approximately equivalent to nearby trabecular thickness.
Osteophyte area was measured for abaxial osteophytes. On the femur, osteophytes associated with the condyles but not with the trochlear grooves were measured.
Bone area (including osteoid) and perimeter were measured in a 3.8 X 1.5 mm ROI centered approximately 1 mm below the bone/cartilage interface. This ROI was intended to be equivalent to the subchondral cancellous bone VOI measured by microCT. Bone volume (BV/TV), trabecular thickness (Tb.Th), trabecular number (Tb.N) and trabecular separation (Tb.Sp) were derived from these measurements using standard formulae.
Slides were evaluated in animal ID order, i.e. in random order with respect to treatment, so that the measurer was effectively blinded to treatment assignment.
Analysis was performed on all four condyles at two levels (Level 1 and 2) for each condyle:
Group 1) sham + vehicle; Group 2) ACLT + vehicle; Group 3) ACLT + MIV-711, 30 µmol/kg (low dose) and Group 4) ACLT + MIV-711, 100 µmol/kg (high dose).

[1] = Level 2, MFC, Group 3: ACLT + MIV-711, 30 µmol/kg (low dose)
[2] = Level 2, MFC, Group 4: ACLT + MIV-711, 100 µmol/kg (high dose)
[3] = Level 2, MTP, Group 3: ACLT + MIV-711, 30 µmol/kg (low dose)
[4] = Level 2, MTP, Group 4: ACLT + MIV-711, 100 µmol/kg (high dose)

C#C[C@@H]1CN(C(=O)[C@H](CC(C)C)NC(=O)c2ccc(-c3nc(N4CCN(C)CC4)sc3F)cc2)[C@@H]2C(=O)CO[C@H]12 [MIV-711]
Tb.Th, Median (Level 1 MFC, Group 4, ACLT + MIV-711 100 µmol/kg): 161.50 µm | BV/TV, Mean (Level 2, LFC, Group 3): 36.23% | BV/TV, Median (Level 2, LFC, Group 3): 35.15% | Cart.Ar, Mean (Level 2, LFC, Group 3): 1.54 mm2 | Cart.Ar, Median (Level 2, LFC, Group 3): 1.50 mm2 | Cart.Bd, Mean (Level 2, LFC, Group 3): 5.95 mm | Cart.Bd, Median (Level 2, LFC, Group 3): 5.45 mm | Cart.Pm, Mean (Level 2, LFC, Group 3): 6.68 mm | Cart.Pm, Median (Level 2, LFC, Group 3): 6.07 mm | Cart.Wi, Mean (Level 2, LFC, Group 3): 252.24 µm | Cart.Wi, Median (Level 2, LFC, Group 3): 265.00 µm | Ophte.Ar, Mean (Level 2, LFC, Group 3): 1.80 mm2 | Ophte.Ar, Median (Level 2, LFC, Group 3): 1.91 mm2 | SCB.Wi, Mean (Level 2, LFC, Group 3): 625.26 µm | SCB.Wi, Median (Level 2, LFC, Group 3): 686.73 µm | Tb.N, Mean (Level 2, LFC, Group 3): 2.86 1/mm | Tb.N, Median (Level 2, LFC, Group 3): 3.01 1/mm | Tb.Sp, Mean (Level 2, LFC, Group 3): 227.32 µm | Tb.Sp, Median (Level 2, LFC, Group 3): 224.93 µm | Tb.Th, Mean (Level 2, LFC, Group 3): 129.54 µm | Tb.Th, Median (Level 2, LFC, Group 3): 124.26 µm | BV/TV, Mean (Level 2, LFC, Group 4): 36.75% | BV/TV, Median (Level 2, LFC, Group 4): 38.04% | Cart.Ar, Mean (Level 2, LFC, Group 4): 1.69 mm2 | Cart.Ar, Median (Level 2, LFC, Group 4): 1.76 mm2 | Cart.Bd, Mean (Level 2, LFC, Group 4): 7.36 mm | Cart.Bd, Median (Level 2, LFC, Group 4): 7.45 mm | Cart.Pm, Mean (Level 2, LFC, Group 4): 8.13 mm | Cart.Pm, Median (Level 2, LFC, Group 4): 8.16 mm | Cart.Wi, Mean (Level 2, LFC, Group 4): 223.79 µm | Cart.Wi, Median (Level 2, LFC, Group 4): 238.09 µm | Ophte.Ar, Mean (Level 2, LFC, Group 4): 4.60 mm2 | Ophte.Ar, Median (Level 2, LFC, Group 4): 1.57 mm2 | SCB.Wi, Mean (Level 2, LFC, Group 4): 500.70 µm | SCB.Wi, Median (Level 2, LFC, Group 4): 462.81 µm | Tb.N, Mean (Level 2, LFC, Group 4): 3.05 1/mm | Tb.N, Median (Level 2, LFC, Group 4): 2.97 1/mm | Tb.Sp, Mean (Level 2, LFC, Group 4): 212.50 µm | Tb.Sp, Median (Level 2, LFC, Group 4): 210.44 µm | Tb.Th, Mean (Level 2, LFC, Group 4): 120.73 µm | Tb.Th, Median (Level 2, LFC, Group 4): 120.14 µm | BV/TV, Mean (Level 2, LTP, Group 3): 42.02% | BV/TV, Median (Level 2, LTP, Group 3): 40.17% | Cart.Ar, Mean (Level 2, LTP, Group 3): 0.88 mm2 | Cart.Ar, Median (Level 2, LTP, Group 3): 0.95 mm2 | Cart.Bd, Mean (Level 2, LTP, Group 3): 4.27 mm | Cart.Bd, Median (Level 2, LTP, Group 3): 4.41 mm | Cart.Pm, Mean (Level 2, LTP, Group 3): 4.26 mm | Cart.Pm, Median (Level 2, LTP, Group 3): 4.48 mm | Cart.Wi, Mean (Level 2, LTP, Group 3): 207.98 µm | Cart.Wi, Median (Level 2, LTP, Group 3): 203.75 µm | Ophte.Ar, Mean (Level 2, LTP, Group 3): 1.40 mm2 | Ophte.Ar, Median (Level 2, LTP, Group 3): 1.23 mm2 | SCB.Wi, Mean (Level 2, LTP, Group 3): 531.17 µm | SCB.Wi, Median (Level 2, LTP, Group 3): 547.82 µm | Tb.N, Mean (Level 2, LTP, Group 3): 2.93 1/mm | Tb.N, Median (Level 2, LTP, Group 3): 3.04 1/mm | Tb.Sp, Mean (Level 2, LTP, Group 3): 202.17 µm | Tb.Sp, Median (Level 2, LTP, Group 3): 206.70 µm | Tb.Th, Mean (Level 2, LTP, Group 3): 146.36 µm | Tb.Th, Median (Level 2, LTP, Group 3): 148.82 µm | BV/TV, Mean (Level 2, LTP, Group 4): 39.84% | BV/TV, Median (Level 2, LTP, Group 4): 38.48% | Cart.Ar, Mean (Level 2, LTP, Group 4): 1.20 mm2 | Cart.Ar, Median (Level 2, LTP, Group 4): 1.00 mm2 | Cart.Bd, Mean (Level 2, LTP, Group 4): 4.73 mm | Cart.Bd, Median (Level 2, LTP, Group 4): 4.37 mm | Cart.Pm, Mean (Level 2, LTP, Group 4): 5.10 mm | Cart.Pm, Median (Level 2, LTP, Group 4): 4.58 mm | Cart.Wi, Mean (Level 2, LTP, Group 4): 263.50 µm | Cart.Wi, Median (Level 2, LTP, Group 4): 255.71 µm | Ophte.Ar, Mean (Level 2, LTP, Group 4): 1.37 mm2 | Ophte.Ar, Median (Level 2, LTP, Group 4): 1.37 mm2 | SCB.Wi, Mean (Level 2, LTP, Group 4): 559.05 µm | SCB.Wi, Median (Level 2, LTP, Group 4): 594.94 µm | Tb.N, Mean (Level 2, LTP, Group 4): 2.47 1/mm | Tb.N, Median (Level 2, LTP, Group 4): 2.50 1/mm | Tb.Sp, Mean (Level 2, LTP, Group 4): 250.77 µm | Tb.Sp, Median (Level 2, LTP, Group 4): 246.02 µm | Tb.Th, Mean (Level 2, LTP, Group 4): 161.80 µm | Tb.Th, Median (Level 2, LTP, Group 4): 153.89 µm | BV/TV, Mean (Level 2, MFC, Group 3): 50.84% | BV/TV, Median (Level 2, MFC, Group 3): 46.53% | Cart.Ar, Mean [1]: 1.47 mm2 | Cart.Ar, Median [1]: 1.46 mm2 | Cart.Bd, Mean [1]: 6.28 mm | Cart.Bd, Median [1]: 6.09 mm | Cart.Pm, Mean [1]: 6.91 mm | Cart.Pm, Median [1]: 6.73 mm | Cart.Wi, Mean [1]: 223.23 µm | Cart.Wi, Median [1]: 234.59 µm | Ophte.Ar, Mean [1]: 2.89 mm2 | Ophte.Ar, Median [1]: 3.00 mm2 | SCB.Wi, Mean [1]: 694.43 µm | SCB.Wi, Median [1]: 608.27 µm | Tb.N, Mean [1]: 2.80 1/mm | Tb.N, Median [1]: 2.86 1/mm | Tb.Sp, Mean [1]: 174.68 µm | Tb.Sp, Median [1]: 185.17 µm | Tb.Th, Mean [1]: 189.67 µm | Tb.Th, Median [1]: 161.11 µm | BV/TV, Mean (Level 2, MFC, Group 4): 43.61% | BV/TV, Median (Level 2, MFC, Group 4): 41.52% | Cart.Ar, Mean [2]: 1.41 mm2 | Cart.Ar, Median [2]: 1.41 mm2 | Cart.Bd, Mean [2]: 6.12 mm | Cart.Bd, Median [2]: 6.18 mm | Cart.Pm, Mean [2]: 6.67 mm | Cart.Pm, Median [2]: 6.55 mm | Cart.Wi, Mean [2]: 222.96 µm | Cart.Wi, Median [2]: 218.64 µm | Ophte.Ar, Mean [2]: 2.78 mm2 | Ophte.Ar, Median [2]: 2.43 mm2 | SCB.Wi, Mean [2]: 570.45 µm | SCB.Wi, Median [2]: 510.39 µm | Tb.N, Mean [2]: 3.01 1/mm | Tb.N, Median [2]: 3.07 1/mm | Tb.Sp, Mean [2]: 189.22 µm | Tb.Sp, Median [2]: 197.91 µm | Tb.Th, Mean [2]: 144.65 µm | Tb.Th, Median [2]: 140.49 µm | BV/TV, Mean [3]: 39.18% | BV/TV, Median [3]: 39.13% | Cart.Ar, Mean [3]: 0.74 mm2 | Cart.Ar, Median [3]: 0.67 mm2 | Cart.Bd, Mean [3]: 2.32 mm | Cart.Bd, Median [3]: 2.31 mm | Cart.Pm, Mean [3]: 2.43 mm | Cart.Pm, Median [3]: 2.27 mm | Cart.Wi, Mean [3]: 312.01 µm | Cart.Wi, Median [3]: 270.73 µm | Ophte.Ar, Mean [3]: 5.73 mm2 | Ophte.Ar, Median [3]: 3.43 mm2 | SCB.Wi, Mean [3]: 747.49 µm | SCB.Wi, Median [3]: 739.43 µm | Tb.N, Mean [3]: 2.37 1/mm | Tb.N, Median [3]: 2.27 1/mm | Tb.Sp, Mean [3]: 257.90 µm | Tb.Sp, Median [3]: 251.22 µm | Tb.Th, Mean [3]: 166.79 µm | Tb.Th, Median [3]: 176.63 µm | BV/TV, Mean [4]: 33.87% | BV/TV, Median [4]: 33.99% | Cart.Ar, Mean [4]: 1.78 mm2 | Cart.Ar, Median [4]: 0.71 mm2 | Cart.Bd, Mean [4]: 2.50 mm | Cart.Bd, Median [4]: 2.18 mm | Cart.Pm, Mean [4]: 2.70 mm | Cart.Pm, Median [4]: 2.14 mm | Cart.Wi, Mean [4]: 282.89 µm | Cart.Wi, Median [4]: 257.34 µm | Ophte.Ar, Mean [4]: 10.32 mm2 | Ophte.Ar, Median [4]: 6.59 mm2 | SCB.Wi, Mean [4]: 575.52 µm | SCB.Wi, Median [4]: 691.04 µm | Tb.N, Mean [4]: 2.15 1/mm | Tb.N, Median [4]: 1.97 1/mm | Tb.Sp, Mean [4]: 317.92 µm | Tb.Sp, Median [4]: 313.76 µm | Tb.Th, Mean [4]: 160.02 µm | Tb.Th, Median [4]: 151.52 µm
